Results published in paper PMC12735718, “Novel Adamantane–Sclareol Hybrids Exploit ROS Vulnerability to Overcome Multidrug-Resistance in Glioblastoma Cells” (Molecules, 2025).

What was measured:
[1] = system: TrxR (SH-SY5Y cell lysate); assay: Colorimetric detection of cell lysate TrxR activity (DTNB); type: biochemical, human; conditions: positive control, 20 µM, DTNB absorbance over 20 min
Excerpt: We further analyzed the potential of adamantane–sclareol hybrids to inhibit TrxR enzyme activity using a colorimetric assay for the detection of TrxR activity in cell lysates. This kinetic assay is based on the ability of TrxR to reduce its substrate 5,5ʹ-dithiobis(2-nitrobenzoic acid) (DTNB) to the yellow product 5-thio-2-nitrobenzoic acid (TNB) in the presence of NADPH. The absorbance of the produced TNB is considered equivalent to the enzymic activity of TrxR. In the kinetic assay, the absorbance of DTNB was measured over 20 min, resulting in a curve showing the dependence of absorbance on time.
TrxR enzyme activity in cell lysate was determined by the reduction of the TrxR substrate DTNB to the yellow product TNB in the presence of NADPH (Acros Organics, Thermo Fisher Scientific, Waltham, MA, USA). Lysate from human neuroblastoma SH-SY5Y cells was used for the TrxR assay. SH-SY5Y cells were grown to 80% confluence, washed twice with PBS, and detached using Hanks-based enzyme-free dissociation solution (Millipore, Billeri-ca, MA, USA). Collected cells were centrifuged at 2000 rpm for 3 min and rinsed in PBS buffer. After additional centrifugation, cells were lysed on ice using Lysis Buffer (50 mM Tris, 150 mM NaCl, 1 mM EDTA, 1% NP40, 0.1% SDS, 0.5% Na-deoxycholate, pH 7.8) containing protease inhibitor mix G (SERVA Electrophoresis GmbH, Heidelberg, Germany) and phosphatase inhibitor cocktail 3 (Sigma-Aldrich, Darmstadt, Germany). The cell lysates were centrifuged at 16,000× g for 15 min at 4 °C. The protein concentrations of the supernatants were determined using a Pierce^TM BCA protein assay kit (Thermo Fisher Scientific, Waltham, MA, USA). The reactions were run in 96-well plates, in a final volume of 100 μL, in 50 mM potassium phosphate buffer (pH 7.0) containing 50 μg of cell lysate proteins, 1 mM EDTA, 50 mM KCl, 0.2 mg/mL BSA, and 0.25 mM NADPH. […] Enzyme kinetics were monitored on an automated microplate reader (MultiskanSky, Thermo Fisher Scientific, Waltham, MA, USA) by measuring the increase in absorbance at 412 nm for 20 min. […]

[2] = system: H2O2 and peroxynitrite anion levels in U87-TxR cells; assay: ROS detection by DHR, U87-TxR; type: cell-based, human; conditions: 10 µM
Experimental: The levels of ROS were measured in U87 and U87-TxR cells by flow cytometry. The production of superoxide anions was detected using DHE fluorescence dye, while production of H2O2 and peroxynitrite anions was detected using DHR fluorescence dye. Cells were seeded in 6-well plates (150,000 cell/well) and incubated overnight. The cells were then treated with compounds 2 or 5 (4 μM) for 24 h and 48 h. CDDP (10 μM) was used as a positive control. After the treatment period, the cells were stained with DHE or DHR for 30 min in the dark. Following incubation, cells were harvested with trypsinization and washed twice in cold phosphate buffer solution (PBS). Fluorescence was measured on a CytoFlex flow cytometer (Beckman Coulter, Indianapolis, IN, USA). Green fluorescence from the oxidized DHR dye was detected at 525 nm, while the red fluorescence from ethidium derived from DHE was detected at 585 nm. At least 10,000 events were assayed for each sample. The results were analyzed by CytExpert 2.4.0.28 software (Beckman Coulter, Indianapolis, IN, USA).

U87-TxR cells [3] = assay: Cell death detection, AV/PI staining, U87-TxR; type: cell-based, human; conditions: 48 h; for cell death effect in MDR U87-TxR cells vs sensitive U87 cells: 4 µM, AV/PI; for percentage of early apoptotic cells vs untreated: 2 µM and 4 µM, particularly at 4 µM
Experimental: To evaluate the extent of cell death upon treatment with adamantane–sclareol hybrids, apoptotic, necrotic, and viable cell populations were assessed using dual staining with AV/PI. U87 and U87-TxR cells were seeded in 6-well plates at a density of 150,000 cells per well and incubated overnight. Subsequently, cells were treated with 2 and 5 (2 µM and 4 µM) for 48 h. At the end of the treatment period, cells were collected (both adherent and floating), washed, and incubated with AV/PI in binding buffer. Samples were analyzed using a CytoFLEX flow cytometer (Beckman Coulter, Indianapolis, IN, USA), with fluorescence signals detected at 525 nm (AV) and 585 nm (PI). At least 10,000 events were recorded per each condition. The percentages of viable (AV^− PI^−), early apoptotic (AV^+ PI^−), late apoptotic (AV^+ PI^+), and necrotic (AV^− PI^+) cells were calculated using CytExpert 2.4.0.28 software (Beckman Coulter, Indianapolis, IN, USA).

A-172 cells = assay: MTT cell viability assay, A-172; type: cell-based; conditions: Homo sapiens, 72 h treatment
Experimental: (§1) Cell viability was measured using the colorimetric MTT assay based on the reduction of MTT into formazan dye. Cell lines were seeded into 96-well cell culture plates (4000 cells/well) in appropriate medium. After overnight incubation, cells were treated with increasing concentrations of 1, 2, 3, 4, 5, and 6 (0.5, 1, 2, 4, and 8 µM). After 72 h treatment, MTT solution (4 mg/mL) was added and plates were incubated at 37 °C with 5% CO2 for 3 h. After incubation, formazan crystals were dissolved using 100 µL DMSO, resulting in a purple color. The absorbance was measured at 570 nm with a reference wavelength of 690 nm using an automated microplate reader (MultiskanSky, Thermo Scientific, USA). The IC50 values were determined by non-linear regression analysis in GraphPad Prism 8.0.2. software (GraphPad Software, Boston, MA, USA).

SVG p12 cells = assay: MTT cell viability assay, SVG p12; type: cell-based, human; conditions: for IC50: Homo sapiens, SVGp12, 72 h treatment, MTT, normal glial cell line; for Selectivity Index: IC50 SVG p12 vs average IC50 in A-172, U87 and U87-TxR
Experimental: as §1

U87 cells = assay: MTT cell viability assay, U87; type: cell-based; conditions: Homo sapiens, U-87 MG, 72 h treatment
Experimental: as §1

U87-TxR cells [4] = assay: MTT cell viability assay, U87-TxR; type: cell-based, human; conditions: for IC50: Homo sapiens, U87-TxR, 72 h treatment, MTT, MDR cell line; for Relative Resistance Factor: ratio of IC50 values U87-TxR / U87
Experimental: as §1

U87-TxR cells [5] = assay: Combination with PTX, MTT assay; type: cell-based, human; conditions: Homo sapiens, U87-TxR; PTX alone, 72 h
Experimental: as §1
The combined effects of 2 and 5 with PTX were studied in U87-TxR cells by MTT assay as previously described. In simultaneous treatments that lasted 72 h, three concentrations of 2 and 5 (0.5, 1, and 2 µM) were combined with three concentrations of PTX (0.1 μM, 0.2 μM, and 0.5 μM). Drug combination effects were evaluated using the Chou–Talalay method, which calculates the combination index (CI) value for the degree of interaction between the drugs. This method allows quantitative assessment of synergism (CI < 1), additivity (CI close to 1), or antagonism (CI > 1) across a range of dose–effect relationships. Calcusyn® version 1.1 software was used for data analysis (Biosoft, Cambridge UK). Three data points were used for each single drug in each designed experiment. The non-constant ratio combination was chosen to assess the effect of both drugs in combination. The results are presented in a fraction-affected CI graph.

[6] = system: mitochondrial membrane potential in U87 and U87-TxR cells; assay: TMRE mitochondrial membrane potential; type: cell-based, human; conditions: 10 µM, added 30 min before staining
Experimental: The cell-permeable fluorescent dye TMRE was used to evaluate mitochondrial membrane potential. TMRE selectively accumulates in active mitochondria with intact membrane potential. […] U87 and U87-TxR cells were seeded in 6-well plates at a density of 150,000 cells per well. After 24 h, cells were treated with 2 and 5 (4 µM) and incubated for an additional 24 h. After treatment, cells were trypsinized, resuspended in complete medium containing 500 nM TMRE, and incubated for 30 min at 37 °C in the dark. CCCP (10 µM) was used as a positive control for mitochondrial depolarization and added 30 min before staining. For each sample, at least 10,000 events were collected. TMRE was detected at […]. The results were calculated using CytExpert 2.4.0.28 software (Beckman Coulter, Indianapolis, IN, USA).

Row | Compound | cell death effect in MDR U87-TxR cells vs sensitive U87 cells (U87-TxR cells [3]) | IC50 (A-172 cells) [nM] | IC50 (SVG p12 cells) [nM] | Selectivity Index (SVG p12 cells) | IC50 (U87 cells) [nM] | IC50 (U87-TxR cells [4]) [nM] | Relative Resistance Factor (U87-TxR cells [4]) | further results
1 | O=C(O)CC([S-])C(=O)O.[Au+] (stereo not drawn) [ATM, aurothiomalate, reference compound] |  |  |  |  |  |  |  | TrxR enzyme activity [1]: inhibited TrxR activity
2 | [NH2][Pt]([NH2])([Cl])[Cl] [CDDP, Cisplatin, reference compound] |  |  |  |  |  |  |  | positive control effect on ROS, U87-TxR vs U87 [2]: more potent effects in MDR U87-TxR cells
3 | CC1(C)CCC[C@]2(C)[C@@H](CC[C@@](C)(O)/C=C/c3ccc(CNCCCCCCNCC45CC6CC(CC(C6)C4)C5)s3)[C@](C)(O)CC[C@@H]12 [Compound 1] | significantly better effects in MDR U87-TxR cells | 2470 ± 36 | 5330 ± 132 | 2.300 ^S | 2400 ± 61 | 2080 ± 37 | 0.869 | 
4 | CC1(C)CCC[C@]2(C)[C@@H](CC[C@@](C)(O)/C=C/c3ccc(CNCCCCCCNCCC45CC6CC(CC(C6)C4)C5)s3)[C@](C)(O)CC[C@@H]12 [Compound 3] | significantly better effects in MDR U87-TxR cells | 3360 ± 57 | 9290 ± 169 | 3.541 ^S | 2200 ± 52 | 2310 ± 52 | 1.049 | percentage of early apoptotic cells vs untreated (U87-TxR cells [3]): significant increase
5 | CC1(C)CCC[C@]2(C)[C@@H](CC[C@@](C)(O)/C=C/c3ccc(CNCCCCCCNCC45CC6CC(CC(C6)C4)C5)o3)[C@](C)(O)CC[C@@H]12 [Compound 4] | significantly better effects in MDR U87-TxR cells | 1380 ± 18 | 918 ± 22 | 0.686 | 1250 ± 36 | 1460 ± 27 | 1.160 | percentage of early apoptotic cells vs untreated (U87-TxR cells [3]): significant increase; early apoptotic population (AV+ PI−) (U87-TxR cells [3]; untreated cells 4.17%, Figure S3): 26.84%
6 | CC1(C)CCC[C@]2(C)[C@@H](CC[C@@](C)(O)/C=C/c3ccc(CNCCCCCCNCCC45CC6CC(CC(C6)C4)C5)o3)[C@](C)(O)CC[C@@H]12 [Compound 6] |  | 2000 ± 26 | 1160 ± 27 | 0.547 | 2470 ± 66 | 1910 ± 46 |  | 
7 | CC(=O)O[C@H]1C(=O)[C@@]2(C)[C@H]([C@H](OC(=O)c3ccccc3)[C@]3(O)C[C@H](OC(=O)[C@H](O)[C@@H](NC(=O)c4ccccc4)c4ccccc4)C(C)=C1C3(C)C)[C@]1(OC(C)=O)CO[C@@H]1C[C@@H]2O [PTX, paclitaxel, reference compound] |  |  |  |  |  |  |  | IC50 (U87-TxR cells [5]): 688 ± 22 nM
8 | Carbonyl cyanide m-chlorophenyl hydrazine [CCCP, reference compound] |  |  |  |  |  |  |  | positive control effect on mitochondrial membrane potential, U87-TxR vs U87 [6]: more potent effects in MDR U87-TxR cells
